Reference: patent US10316039B2, “P2X3 and/or P2X2/3 compounds and methods” (Asana Biosciences, LLC, priority 2013, dated 2019)

Key:
[1] = system: acetic acid-induced writhing (visceral pain); experiment: Acetic acid induced writhing test; format: in vivo; conditions: mouse, 20, 40 and 60 mg/kg oral gavage, 30 min before i.p. acetic acid, counted 15 min
Experimental: FIG. 4 illustrates the antinociceptive effects of the compound of example 22 in a mouse model of visceral pain. The compound of example 22 was administered by oral gavage at 3 dose levels (20, 40 and 60 mg/kg) 30 min prior to an intraperitoneal injection of a dilute acetic acid solution. When injected into the abdominal cavity, acetic acid induces a distinctive stretching response in the abdomen and at least one hind limb that is assumed to reflect a response to visceral pain. […] Statistical significance is indicated with respect to the vehicle control group and was performed using a one-way ANOVA followed by Dunnett's multiple comparison test. Swiss albino mice of 30-40 g were included in the study. The mice were given an intraperitoneal injection of 0.7% v/v acetic acid solution at an injection volume of 10 mL/kg, 30 min after oral administration of vehicle or test article control. Test articles were administered, typically, at doses between 20 and 60 mg/kg. The mice were placed individually into glass chambers. The number of writhes produced in these animals was counted for 15 min following acetic acid administration. For scoring purposes writhing was indicated by stretching of the abdomen with simultaneous stretching of at least one hind limb. See, e.g., FIG. 4. Statistical analysis was done with One way ANOVA followed by Dunnett's multiple comparison tests. […]

[2] = system: formalin-induced hind limb flinching; experiment: Formalin induced pain (Automated Nociception Analyzer test); format: in vivo; conditions: rat, 100 mg/kg oral gavage, 30 min before footpad formalin
Experimental: FIG. 3 illustrates the antinociceptive effects of the compound of example 22 in a rat model of ongoing spontaneous pain. The compound of example 22 was administered by oral gavage at a dose of 100 mg/kg followed 30 min later by a footpad injection of a dilute formalin solution. Formalin elicits a typical biphasic nociceptive response that manifests as spontaneous hind limb flinches which are counted and binned over 5 min epochs. […] Male Sprague Dawley rats of young adult age group and body weight range of 200-250 g were included in the study. Animals were housed under a 12 h light/dark cycle with food and water ad libitum. Animals were acclimatized in the observation chambers of Automated Nociception Analyzer (ANA) for 45-60 min, twice daily for two days prior to the study day. On the day of the study, metal bands were glued to the plantar surface of the right hind paw of each animal enrolled in the study set and kept in plastic observation chambers for 10-15 min. […] […] count data for each animal was recorded from 1 to 60 min post formalin injection, using ANA motion analysis software. The study was analyzed in 2 phases, the early phase extended from 0-10 min and second phase extended from 11-60 min post formalin injection. […]

For `CCc1cnnn1-c1cc(C(=O)NCc2ccc(C)nc2)cn2c(-c3ccc(C)s3)cnc12` [Example 22], the “pain responses (writhes) after acetic acid” value [1] was “clear dose-related reduction in the pain responses” and the “second phase flinching response to formalin” value [2] was “attenuated the second phase flinching response to formalin”.
